The target in one assay is human cathepsin K (UniProt P43236). Description: Cathepsin K Assay (hrbCat K). The format is biochemical. Particulars: Z-Leu-Arg-AMC substrate, pH 5.5, 15 min preincubation; read-out: hrbCat K (IP (nM)). In outline:
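Human cathepsin K (0.4 nM) was preincubated 15 min at room temperature with compound in 50 mM MES pH 5.5, 2.5 mM EDTA, 2.5 mM DTT and 10% DMSO. Inhibition was fitted to a dose-response model.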

The next assay concerns the target T1, human cathepsin F (Homo sapiens, UniProt Q9UBX1).
T1 sequence (Q9UBX1 271-484): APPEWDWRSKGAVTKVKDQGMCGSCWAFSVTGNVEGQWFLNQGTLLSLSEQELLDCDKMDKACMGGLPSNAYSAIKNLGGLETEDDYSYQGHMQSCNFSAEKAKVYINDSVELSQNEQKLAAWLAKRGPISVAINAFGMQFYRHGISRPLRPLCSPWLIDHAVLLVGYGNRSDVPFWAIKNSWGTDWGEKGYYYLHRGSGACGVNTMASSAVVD
Put plainly: Cathepsin F assay (hCat F). Format: biochemical. Particulars: Z-Phe-Arg-AMC substrate, pH 5.5, 15 min preincubation; read-out: hCat F (IP (nM)). In outline:
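AMC release from Z-Phe-Arg-AMC, added at 8 μM, was monitored fluorometrically (360/460 nm) for 20 min after 10 nM enzyme and compound had been preincubated 15 min at room temperature. Buffer: MES 50 mM pH 5.5, EDTA and DTT 2.5 mM each, 10% DMSO. Compound DMSO dilutions spanned 500–0.025 μM (3-fold). Dose-response fitting gave % inhibition.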

For `Cc1nc([C@@H]2CC[C@H](F)C[C@H]2C(=O)N[C@@H](C)C#N)c(-c2ccc(N3CCC(S(C)(=O)=O)CC3)cc2)s1` [Example 244, (1R,2R,5S)-N-((S)-1-cyanoethyl)-5-fluoro-2-(2-methyl-5-(4-(4-(methylsulfonyl)piperidin-1-yl)phenyl)thiazol-4-yl)cyclohexane-carboxamide], the IC50 on human cathepsin K is 4.7 nM; on human cathepsin F, 7740 nM.
The matching figures for `COc1cccc(-c2nc([C@@H]3CCCC[C@H]3C(=O)NC3(C#N)CC3)c(-c3ccc(N4CCS(=O)(=O)CC4)cc3)s2)c1` [Example 56, (1R,2R)-N-(1-cyanocyclopropyl)-2-(5-(4-(1,1-dioxidothiomorpho-lino)phenyl)-2-(3-methoxyphenyl)thi-azol-4-yl)cyclohexane-carboxamide]: 1.8 nM and 821 nM.
In the same order, the values of `N#CC1(NC(=O)[C@@H]2C[C@@H](F)CC[C@H]2c2nc(-c3ccc(C(F)(F)F)nn3)sc2-c2ccc(N3CCS(=O)(=O)CC3)cc2)CC1` [Example 197, (1R,2R,5S)-N-(1-cyanocyclopropyl)-2-(5-(4-(1,1-dioxidothiomorpho-lino)phenyl)-2-(6-(trifluoromethyl)pyridazin-3-yl)thiazol-4-yl)-5-fluorocyclohexane-carboxamide] are 512 nM and at least 10000 nM.
In the same order, the values of `N#CC1(NC(=O)[C@@H]2CCCC[C@H]2c2nc(-c3ccc(C4CCOCC4)cc3)sc2-c2ccc(N3CCS(=O)(=O)CC3)cc2)CC1` [Example 121, (1S,2R)-N-(1-cyanocyclopropyl)-2-(5-(4-(1,1-dioxidothiomorpho-lino)phenyl)-2-(4-(tetrahydro-2H-pyran-4-yl)phenyl)thiazol-4-yl)cyclohexane-carboxamide] are 1.5 nM and 1110 nM.
Take `COc1ccc(-c2nc([C@@H]3CC[C@H](F)C[C@H]3C(=O)NC3(C#N)CC3)c(-c3ccc(N4CCS(=O)(=O)CC4)cc3)s2)nc1` [Example 114, (1R,2R,5S)-N-(1-cyanocyclopropyl)-2-(5-(4-(1,1-dioxidothiomorpho-lino)phenyl)-2-(5-methoxypyridin-2-yl)thiazol-4-yl)-5-fluorocyclohexane-carboxamide]: the IC50 on human cathepsin K was found to be 1.1 nM; at human cathepsin F it was 1000 nM.
The matching figures for `CS(=O)(=O)C1CN(c2ccc(-c3sc(-c4cncc(Cl)c4)nc3[C@@H]3CCCC[C@H]3C(=O)NC3(C#N)CC3)cc2)C1` [Example 85, (1R,2R)-2-(2-(5-chloropyridin-3-yl)-5-(4-(3-(methylsulfonyl)azetidin-1-yl)phenyl)thiazol-4-yl)-N-(1-cyanocyclopropyl) cyclohexanecarbox-amide]: 2.1 nM and 1090 nM.
In the same order, the values of `N#CC1(NC(=O)[C@@H]2CCCC[C@H]2c2nc(N3CCC(F)(F)CC3)sc2-c2ccc(N3CCS(=O)(=O)CC3)cc2)CC1` [Compound 6, (1R,2R)-N-(1-cyanocyclopropyl)-2-(2-(4,4-difluoropiperidin-1-yl)-5-(4-(1,1-dioxidothiomorpholino)phenyl)thiazol-4-yl)cyclohexanecarboxamide] are 3.6 nM and 1000 nM.
The matching figures for `CS(=O)(=O)C1CN(c2ccc(-c3sc(-c4cccnc4)nc3[C@@H]3CCCC[C@H]3C(=O)NC3(C#N)CC3)cc2)C1` [Example 73, (1R,2R)-N-(1-cyanocyclopropyl)-2-(5-(4-(3-(methylsulfonyl)azetidin-1-yl)phenyl)-2-(pyridin-3-yl)thiazol-4-yl)cyclohexane-carboxamide]: 2.2 nM and 1200 nM.
Regarding `Cc1nccc(-c2nc([C@@H]3CCCC[C@H]3C(=O)NC3(C#N)CC3)c(-c3ccc(N4CCS(=O)(=O)CC4)cc3)s2)n1` [Example 119, (1R,2R)-N-(1-cyanocyclopropyl)-2-(5-(4-(1,1-dioxidothiomorpho-lino)phenyl)-2-(2-methylpyrimidin-4-yl)thiazol-4-yl)cyclohexane-carboxamide], the figures for the IC50 at human cathepsin K and on human cathepsin F were 1.3 nM and 1200 nM, respectively.
Take `CS(=O)(=O)C1CN(c2ccc(-c3sc(-c4cncc(F)c4)nc3[C@@H]3CCCC[C@H]3C(=O)NC3(C#N)CC3)cc2)C1` [Example 75, (1R,2R)-N-(1-cyanocyclopropyl)-2-(2-(5-fluoropyridin-3-yl)-5-(4-(3-(methylsulfonyl)azetidin-1-yl)phenyl)thiazol-4-yl)cyclohexane-carboxamide]: the IC50 at human cathepsin K came to 1.5 nM; on human cathepsin F, 867 nM.
The matching figures for `N#CC1(NC(=O)[C@@H]2CCCC[C@H]2c2nc(Oc3ccc(F)cc3F)sc2-c2ccc(N3CCS(=O)(=O)CC3)cc2)CC1` [Example 198, (1R,2R)-N-(1-cyanocyclopropyl)-2-(2-(2,4-difluorophenoxy)-5-(4-(1,1-dioxidothiomorpho-lino)phenyl)thiazol-4-yl)cyclohexane-carboxamide]: 4.2 nM and 1020 nM.
In the same order, the values of `CN=S1(=O)CCN(c2ccc(-c3oc(C(C)(C)C)nc3[C@@H]3CC[C@H](F)C[C@H]3C(=O)N[C@H](C#N)C(C)C)cc2)CC1` [Example 174, (1R,2R,5S)-2-(2-(tert-butyl)-5-(4-(1-(methylimino)-1-oxidothiomorpholino)phenyl)oxazol-4-yl)-N-((S)-1-cyano-2-methylpropyl)-5-fluorocyclohexane-carboxamide] are 31.3 nM and at least 10000 nM.
The matching figures for `N#CC1(NC(=O)[C@@H]2CCCC[C@H]2c2nc(-c3cnc(C4CC4)c(F)c3)sc2-c2ccc(N3CCS(=O)(=O)CC3)cc2)CC1` [Example 99, (1R,2R)-N-(1-cyanocyclopropyl)-2-(2-(6-cyclopropyl-5-fluoropyridin-3-yl)-5-(4-(1,1-dioxidothiomorpho-lino)phenyl)thiazol-4-yl)cyclohexane-carboxamide]: 1.7 nM and 3330 nM.
Turning to `N#CC(NC(=O)[C@@H]1CCCC[C@H]1c1nc(-c2ccc(F)cn2)sc1-c1ccc(N2CCS(=O)(=O)CC2)cc1)C(F)(F)F` (mixture of isomers) [Example 215, (1R,2R)-N-((S and R)-1-cyano-2,2,2-trifluoroethyl)-2-(5-(4-(1,1-dioxidothiomorpho-lino)phenyl)-2-(5-fluoropyridin-2-yl)thiazol-4-yl)cyclohexane-carboxamide], the IC50 was 2.4 nM on human cathepsin K and 60 nM on human cathepsin F.

Source of the values: patent US9573913B2, “Cathepsin cysteine protease inhibitors” (Merck Sharp & Dohme Corp., priority 2013, dated 2017).
